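Briefly, cells in 96-well plates were exposed to five compound concentrations for 48 h, and endpoints were estimated by linear interpolation. TGI: concentration producing complete growth inhibition.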

Among the test systems are BT-549 breast; CAKI-1 renal; DU-145 prostate; EKVX NSCLC; HL-60(TB) leukemia; HS 578T breast; HT29 colon; KM12 colon; MALME-3M melanoma; MOLT-4 leukemia; NCI-H23 lung; NCI-H460 lung; OVCAR-8 ovarian; RPMI-8226 leukemia; RXF 393 renal; SK-MEL-2 melanoma; TK-10 renal; UACC-257 melanoma; SNB-75 CNS.
Holding throughout (assay): inhibition of tumour cell growth, NCI panel, 48 h

In the case of `CC[C@H]1C=CCC[C@@]2(C[C@@H]3CC[C@H]4[C@H](C(=O)OCCCCCCCCCCCCCCCC(=O)N(CCCN)C[C@@H](O)CCN)[C@]5(CCC[C@@H](C)O5)NC(=[N+]34)N2)O1`, the TGI in the assay with BT-549 breast was 4.27 µM; with CAKI-1 renal, 1.87 µM; in the assay on DU-145 prostate, 2.3 µM; in the assay on EKVX NSCLC, 2.66 µM; in the assay on HL-60(TB) leukemia, 1.35 µM; with HS 578T breast, 4.26 µM. Further, the TGI in the assay with HT29 colon was determined as 1.48 µM; in the assay with KM12 colon, 1.82 µM; in the assay on MALME-3M melanoma, 0.806 µM; in the assay on MOLT-4 leukemia, 1.29 µM; in the assay on NCI-H23 lung, 3.21 µM; in the assay on NCI-H460 lung it was 1.87 µM. Besides, the TGI with OVCAR-8 ovarian came out at 2.92 µM; with RPMI-8226 leukemia, 0.833 µM; in the assay on RXF 393 renal, 3.42 µM; with SK-MEL-2 melanoma, 2.06 µM; in the assay with TK-10 renal it was 2.98 µM; in the assay on UACC-257 melanoma, 2.02 µM.

As for `O=C(CC(=O)N1N=C(N(c2ccccc2)c2ccccc2)CC1c1ccccc1)Nc1ccccc1` (configuration not stated), the TGI in the assay with BT-549 breast, with CAKI-1 renal, in the assay with DU-145 prostate, in the assay on EKVX NSCLC, in the assay on HL-60(TB) leukemia and in the assay with HS 578T breast was more than 100 µM throughout. The TGI in the assay with HT29 colon, in the assay on KM12 colon, with MOLT-4 leukemia, with NCI-H23 lung, in the assay with NCI-H460 lung and in the assay on OVCAR-8 ovarian was more than 100 µM each time. For the same compound, the TGI in the assay on RPMI-8226 leukemia, in the assay with RXF 393 renal, with SK-MEL-2 melanoma, in the assay with SNB-75 CNS, in the assay on TK-10 renal and in the assay on UACC-257 melanoma was more than 100 µM in each case.

Consider `Cc1nnc2n1N=C(c1cc(F)c(Cl)cc1Cl)/C(=C/c1ccc3c(c1)OCO3)S2`, for which the TGI is more than 100 µM in the assay with BT-549 breast; more than 100 µM in the assay with CAKI-1 renal; more than 100 µM in the assay with DU-145 prostate; 84.3 µM in the assay with EKVX NSCLC; more than 100 µM in the assay on HL-60(TB) leukemia; more than 100 µM with HS 578T breast. Moreover, the TGI in the assay with HT29 colon, in the assay with KM12 colon, in the assay on MALME-3M melanoma, with MOLT-4 leukemia, with NCI-H23 lung and with NCI-H460 lung was more than 100 µM each time. Further, the TGI in the assay on OVCAR-8 ovarian, in the assay on RPMI-8226 leukemia, with RXF 393 renal, in the assay on SK-MEL-2 melanoma, in the assay with TK-10 renal and with UACC-257 melanoma was more than 100 µM in each case.

Turning to `COc1cc2c(cc1OC)C(=O)/C(=C/c1ccc([N+](=O)[O-])cc1)CC2`, the TGI in the assay on BT-549 breast, in the assay on CAKI-1 renal, with DU-145 prostate, with EKVX NSCLC, with HL-60(TB) leukemia and in the assay with HS 578T breast was more than 10 µM throughout. Besides, the TGI in the assay on HT29 colon, in the assay with KM12 colon, with MALME-3M melanoma, with MOLT-4 leukemia, in the assay on NCI-H23 lung and with NCI-H460 lung was more than 10 µM throughout. Moreover, the TGI with OVCAR-8 ovarian, in the assay with RPMI-8226 leukemia, with RXF 393 renal, with SK-MEL-2 melanoma, with TK-10 renal and in the assay with UACC-257 melanoma was more than 10 µM throughout.

Consider `O=C(OCc1ccccc1)N1CCCc2c(n(S(=O)(=O)c3ccccc3)c3ccccc23)C1`, for which the TGI with BT-549 breast, with CAKI-1 renal, with DU-145 prostate, in the assay on EKVX NSCLC, in the assay on HL-60(TB) leukemia and in the assay with HS 578T breast was more than 100 µM each time. The TGI in the assay with HT29 colon, in the assay with KM12 colon, in the assay on MALME-3M melanoma, in the assay with MOLT-4 leukemia, with NCI-H23 lung and in the assay on NCI-H460 lung was more than 100 µM each time. In addition, the TGI in the assay with OVCAR-8 ovarian, in the assay on RPMI-8226 leukemia, in the assay with RXF 393 renal, in the assay with SK-MEL-2 melanoma, with TK-10 renal and in the assay on UACC-257 melanoma was more than 100 µM throughout.

With `CC1=CC(=O)/C(=C/n2c(=S)[nH]c3ccc([N+](=O)[O-])cc32)C(=O)O1`, the TGI in the assay with BT-549 breast was more than 100 µM; in the assay on DU-145 prostate, more than 100 µM; with EKVX NSCLC, more than 100 µM; in the assay with HL-60(TB) leukemia, 4.93 µM; in the assay on HS 578T breast, more than 100 µM; in the assay with HT29 colon, more than 100 µM. For the same compound, the TGI in the assay on KM12 colon, with MOLT-4 leukemia, in the assay with NCI-H23 lung, with NCI-H460 lung, with OVCAR-8 ovarian and with RPMI-8226 leukemia was more than 100 µM throughout. Further, the TGI with RXF 393 renal, in the assay on SK-MEL-2 melanoma, in the assay on SNB-75 CNS, in the assay with TK-10 renal and with UACC-257 melanoma was more than 100 µM each time.

Values taken from PubChem BioAssay (NCI).
